Source: US9682925B2, “Cyclopropaneamine compound” (TAKEDA PHARMACEUTICAL COMPANY LIMITED, priority 2011, dated 2017)
Counter-ions that a name gives are not always drawn.

What was measured:
MAO-A = target: T1, MAO-A (Homo sapiens, UniProt P21397); experiment: Measurement of MAO-A inhibitory activity (MAO-Glo Assay); assay type: biochemical
T1 construct: purchased Sigma-Aldrich Co. LLC
T1 sequence (P21397 1-527): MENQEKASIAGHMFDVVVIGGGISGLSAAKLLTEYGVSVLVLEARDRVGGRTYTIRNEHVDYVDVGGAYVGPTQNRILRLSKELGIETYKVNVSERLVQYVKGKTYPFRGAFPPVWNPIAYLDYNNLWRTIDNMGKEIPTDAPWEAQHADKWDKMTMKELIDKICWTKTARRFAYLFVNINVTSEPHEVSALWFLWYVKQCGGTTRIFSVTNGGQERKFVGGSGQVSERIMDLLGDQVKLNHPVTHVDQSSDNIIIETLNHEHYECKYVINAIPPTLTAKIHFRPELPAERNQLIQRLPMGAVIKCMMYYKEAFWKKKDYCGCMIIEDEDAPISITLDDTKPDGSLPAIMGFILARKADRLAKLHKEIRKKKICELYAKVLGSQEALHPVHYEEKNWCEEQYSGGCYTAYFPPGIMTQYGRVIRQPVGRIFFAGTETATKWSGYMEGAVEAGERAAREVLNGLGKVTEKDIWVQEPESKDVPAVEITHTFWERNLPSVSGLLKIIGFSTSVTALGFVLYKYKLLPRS
How it was run: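 MAO-A (400 ng) was pre-incubated with compound 10 min at room temperature in 100 mM HEPES pH 7.5, 5% glycerol, then MAO substrate (160 μM stock) added for 60 min. Luciferin detection reagent, 20 min, luminescence; % inhibition against no-compound control minus no-enzyme blank.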

[1] = test system: HEL92.1.7 acute myeloid leukemia cells; experiment: Tumor growth suppressive effect test using HEL92.1.7 acute myeloid leukemia cell; assay type: in vivo, SCID mice; settings: change rate in tumor volume, vehicle-treated group = 100%, 30 mg/kg orally once per day
Description: Tumor Growth Suppressive Effect Test Using HEL92.1.7 Acute Myeloid Leukemia Cell
6-Week-old SCID mice were subcutaneously transplanted with 5×10^6 cells/100 μl of HEL92.1.7 acute myeloid leukemia cells, and the mice were grouped according to the body weight and tumor volume after 15 to 17 days. Vehicle (0.5% methylcellulose) or compound A, compound B or compound C was administered orally to mice (5 mice per group). The administration was once per day and performed continuously during the dosing period. Setting the change in tumor volume of the vehicle-treated group as 100%, the change rate in tumor volume of the compound-treated group (T/C %) was calculated. The tumor volume was determined by measuring the long diameter m and short diameter of the tumor with a vernier caliper, and calculating by the following calculation formula: (long diameter)×(short diameter)×(short diameter)/2.

human LSD1(171-852) = target: T2, human LSD1(171-852) (Homo sapiens, UniProt O60341); experiment: Measurement of LSD1 inhibitory activity (time-resolved fluorescence, biotin-histone H3 mono methylated K4 peptide); assay type: biochemical; settings: read-out: LSD1 IC50 value
T2 construct: to give hLSD1(171-852) purified product; made in house; host or cells: Escherichia coli C43(DE3) pLysS

MAO-B = target: T3, MAO-B (Homo sapiens, UniProt P27338); experiment: Measurement of MAO-B inhibitory activity (MAO-Glo Assay); assay type: biochemical
T3 construct: purchased Sigma-Aldrich Co. LLC
T3 sequence (P27338 1-520): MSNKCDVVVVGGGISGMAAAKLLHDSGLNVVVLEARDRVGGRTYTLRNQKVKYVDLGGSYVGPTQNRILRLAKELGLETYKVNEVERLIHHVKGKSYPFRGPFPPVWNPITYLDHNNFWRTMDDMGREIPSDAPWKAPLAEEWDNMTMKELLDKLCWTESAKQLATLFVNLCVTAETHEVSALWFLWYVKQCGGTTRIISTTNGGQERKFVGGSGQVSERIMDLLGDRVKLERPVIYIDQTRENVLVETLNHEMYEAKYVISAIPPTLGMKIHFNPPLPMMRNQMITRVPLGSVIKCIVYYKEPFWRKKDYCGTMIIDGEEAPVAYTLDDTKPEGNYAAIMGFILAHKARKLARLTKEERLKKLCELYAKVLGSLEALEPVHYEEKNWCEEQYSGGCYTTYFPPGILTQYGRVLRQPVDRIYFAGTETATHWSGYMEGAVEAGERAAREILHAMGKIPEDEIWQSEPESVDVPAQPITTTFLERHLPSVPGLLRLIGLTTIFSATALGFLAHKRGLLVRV
How it was run: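 Percent inhibition was calculated from luciferin-based luminescence, corrected with a blank lacking enzyme and a control lacking compound. The reaction ran 60 min at room temperature after adding MAO substrate (16 µM as added). This followed a 10 min compound–enzyme preincubation in HEPES pH 7.5 buffer.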

Structure (SMILES)	IC50 (MAO-A) [µM]	T/C (%) ([1]; dosing period 7 days)	IC50 (human LSD1(171-852)) [µM]	IC50 (MAO-B) [µM]	T/C (%) ([1]; dosing period 14 days)
CN1CCC(N[C@@H]2C[C@H]2c2ccc(NC(=O)c3cccc(C(F)(F)F)c3)cc2)CC1 (relative stereo) [Example 76, N-(4-{trans-2-[(1-methylpiperidin-4-yl)amino]cyclopropyl}phenyl)-3-(trifluoromethyl)benzamide dihydrochloride]	> 10	−8.08	< 0.1	> 10	–
O=C(Nc1ccc([C@@H]2C[C@H]2NCC2CC2)cc1)c1cn[nH]c1 (relative stereo) [Example 79, N-(4-{trans-2-[(cyclopropylmethyl)amino]cyclopropyl}phenyl)-1H-pyrazole-4-carboxamide hydrochloride]	> 10	–	< 0.1	> 10	46.42
